# In US20170087120A1, “COMPOSITION FOR IMPROVING BIOAVAILBILITY AND EFFICACY OF TAXANE” (Florida A&M University, priority 2015, published 2017):
# Columns and labels:
# CYP3A4 = experiment: in vitro microsomal metabolism of taxane by human liver microsomes; type: in vitro ADME; conditions: for metabolism of docetaxel (DTX) by human liver microsomes: PPL added in reaction mixture with DTX
# Experimental: In FIG. 1A, in vitro microsomal metabolism studies of DTX by human liver microsomes were carried out in combination with PPL and compared with a known standard CYP3A4 inhibitor, Cyclosporin A (CYA).
# Caco-2 monolayer = experiment: permeability and efflux across Caco-2 monolayer; conditions: co-treated with piperlongumine
# From the text: In FIG. 1B, Caco-2 is colon carcinoma cells used to evaluate the permeability and efflux of drug in GI track.
# [1] = in vivo oral pharmacokinetic in SD rats; conditions: coadministration with PPL vs DTX alone
# MDA-MB-231 cell line = experiment: in vitro migration assay; type: cell-based
# From the text: FIG. 2C depicts in vitro migration assay on MDA-MB-231 cell line.
# [2] = cancer cell lines, with piperlongumine
smiles,measurement,setting,value
"COc1cc(/C=C/C(=O)N2CCC=CC2=O)cc(OC)c1OC [PPL, piperlongumine]",metabolism of docetaxel (DTX) by human liver microsomes,CYP3A4,significantly reduced
same,metabolism of docetaxel (DTX) by human liver microsomes,CYP3A4; listed as Piperlongumine,reduction
same,half-life of DTX,"CYP3A4; human liver microsomes, PPL added in reaction mixture",doubled
same,CYP3A4 inhibition,"CYP3A4; human liver microsomes, compared with Cyclosporin A (CYA)",comparable to inhibitor CYA
same,metabolism of paclitaxel by human microsomal enzyme,CYP3A4; with piperlongumine,reduction
same,permeability co-efficient of docetaxel,Caco-2 monolayer,enhancement
same,oral bioavailability of docetaxel (DTX),[1],significant enhancement
same,oral bioavailability of docetaxel (DTX),[1]; listed as Piperlongumine,significantly enhanced
same,% bridging of migration area,MDA-MB-231 cell line; MDA-MB-231 cell line,significant reduction
same,anti-migration effect of docetaxel,MDA-MB-231 cell line; [2],enhanced
same,anti-migration effect of paclitaxel,MDA-MB-231 cell line; [2],enhanced
